From patent publication US20230329237A1, “MUSA PLANTS, FIELDS […] PLANTS” (Taminco BV, priority 2020, published 2023)

Assays:
[1] = system: F. oxysporum f. sp. cubense; test: Panama disease analysis of soil samples from the treated field (Komada medium); type: in vivo, Fusarium oxysporum f. sp. cubense Tropical Race 4; settings: any of the treated groups (750-3000 L/ha); any day post application
Protocol: (§1) Metam Sodium Application. Metam sodium 510 SL (equivalent to 42% w/w) was applied to soil at the following doses: 0 liters per hectare (L/ha), 750 L/ha, 1500 L/ha, 2250 L/ha, 3000 L/ha.
(§2) Prior to injection, soil was prepared using a rototiller to break the soil structure from 0 cm to 80 cm deep, allowing for the smooth and even injection application by an injection machine. The soil was then leveled and made uniform, and the metam sodium was applied at two depths: 30 cm and 60 cm, using injection methods. The temperature was at a minimum of 10 °C and soil humidity was between 50 and 60% holding capacity, allowing the applied product to transform from metam sodium (liquid) to MITC (gas).
(§3) The application was made using an injection machine wherein the machine lowered shanks and began moving forward such that the shanks lowered to a depth of 60 cm and injectors applied the metam sodium into the soil. When the injection at 60 cm was complete, the process was repeated for the entire field at 30 cm. The treated soil in the field was then sealed using a packer roller (which was part of the injection machinery, located at the back end of the machine), after each application.
(§4) Soil Analysis. Soil samples were obtained at 20, 40, and 60 cm before application and every 24 hours beginning 48 hours after application, for seven days.
Plant Pathology Analysis. […]

[2] = system: parasitic nematodes; test: Nematode analysis of soil samples from the treated field; type: in vivo; settings: any tested soil samples
Protocol: as §4
Plant Pathology Analysis. Soil samples used for Panama Disease and nematode analyses were aseptically isolated in culture medium and incubated for seven days at room temperature. Organisms were identified as follows: 20 grams of composite soil sample was diluted with 40 mL distilled water (dH2O); 1 drop of Tween 20 detergent was added, and the sample mixed. A 1 mL aliquot was taken from the solution and diluted with 9 mL dH2O; three further serial dilutions were made. From each dilution, 100 μL were spread on solid Komada growth medium (Sun et al., Phytopathology 68: 1672-1673, 1978). Growth could be seen 7 days after inoculation.

[3] = system: Cavendish banana plants; test: Field trial: growth and development of banana plants transplanted into metam sodium treated soil; type: in vivo, Musa (Cavendish banana)
Protocol: The analyses described in this example were carried out in the Philippines in a field in which Musa trees (specifically bananas) were to be planted, in the spring (beginning in March). Final determinations were carried out in September of the same year.
as §1, §2, §3
Plant Selection and Transplantation. Cavendish banana plants were used for this investigation. In order to avoid plants already contaminated by other soil, all plants were produced in vitro using art-recognized methods. Plants were transplanted into the field 14 days after the final soil reading was taken (21 days after treatment).
Data Gathering. Data were gathered at monthly intervals beginning three months after banana plants were transplanted. A total of three data collection sessions were conducted. Data including the number of leaves, plant height, and girth size were collected.

[4] = system: Foc TR4 chlamydospores; test: In vitro efficacy of metam sodium on Foc TR4 chlamydospores (colonies on PDA plates); type: cell-based, Fusarium oxysporum f. sp. cubense Tropical Race 4
Protocol: Foc TR4 chlamydospores were extracted from infested soil and incubated with a dilution series of metam sodium for 5 min and 60 min at room temperature. Thereafter, the samples were diluted 10×to get reduction of the treatment and sufficient dilution of chlamydospores to avoid lack of resolution when grown on plate. Aliquots of 100 μl were plated on PDA plates in duplicate and incubated for 3 days at 25° C. Plates were photographed and scored.

[5] = 750 L/ha, six months after treatment
[6] = 1500 L/ha, six months after treatment
[7] = 2250 L/ha, six months after treatment
[8] = 3000 L/ha, six months after treatment

CNC(=S)[S-].[Na+] [metam sodium, sodium N-methyldithiocarbamate]
Foc TR4 in soil (soil contamination) [1]: No Foc TR4 was detected | parasitic nematodes in soil [2]: no parasitic nematodes were noted | average girth size of banana plant, increase ([3]; 750 L/ha): ~1 cm | average height of banana plant, increase ([3]; 750 L/ha): ~5 cm | percent of plants at either shooting or bagging stage [3, 5]: 11% | percent of plants at shooting stage [3, 5]: 9% | plants reaching bagging stage [3, 5]: did not have a meaningful effect | average girth size of banana plant, increase ([3]; 1500-3000 L/ha): 4-6 cm | average height of banana plant, increase ([3]; 1500-3000 L/ha): 20-23 cm | percent of plants at either shooting or bagging stage [3, 6]: 28% | percent of plants at shooting stage [3, 6]: 10% | percent of plants at bagging stage ([3]; 1500 to 3000 L/ha, six months after treatment): 11-19% | percent of plants at either shooting or bagging stage [3, 7]: 27% | percent of plants at shooting stage [3, 7]: 17% | percent of plants at either shooting or bagging stage [3, 8]: 35% | percent of plants at shooting stage [3, 8]: 22% | average number of leaves, increase ([3]; regardless of dose applied (750-3000 L/ha), vs 0 L/ha): roughly 1.5 fold | reducing the number of surviving chlamydospores, measured as growing colonies ([4]; 100× dilution, prolonged incubation (60 vs 5 minutes)): more effective | efficacy on Foc TR4 colony growth on plates ([4]; dilution of 10×, incubation time 5 minutes): effective | efficacy on Foc TR4 colony growth on plates ([4]; dilution of 100×, 5 and 60 minutes): less effective | reduction in viability of Foc TR4 chlamydospores ([4]; first test, dilutions from 1000 up to 10×10^6-fold, 60 min): No significant reduction in viability | efficacy against Foc TR4 chlamydospores under in vitro conditions ([4]; overall, dependent on high concentrations): effective against Foc TR4 chlamydospores | efficacy on surviving chlamydospores ([4]; second test, 10× and 100× dilutions): (partially) effective | number of chlamydospores that survived ([4]; second test, dilutions of 1000× and more): did not affect the number of chlamydospores that survived
